According to patent publication US20070208067A1, “Tablet Formulations and Processes” (Wyeth, priority 2006, published 2007):

Experiments:
[1] = Dynamic vapor sorption (hygroscopicity) of the two crystal forms; type: physicochemical; conditions: for DVS weight gain: 0–90% RH; for Hygroscopicity (DVS): result in words
From the text: Dynamic Vapor Sorption (Allentown, Pa.) was used to measure the hygroscopicity of the anhydrate and monohydrate of the invention (see FIGS. 6 and 7). The step conditions were three hours each at 0%, 30%, 52.5%, 75% and 90% RH, two full cycles.

[2] = Stability studies of the two crystal forms (XRPD, TGA, HPLC); type: physicochemical; conditions: for Chemical stability (HPLC) / Crystal form transformation (XRPD and TGA): 40° C./75% RH (monohydrate also 40° C. without humidity control)
Description: […] At room temperature, humidity was maintained at 0% RH. Humidity was not controlled for the higher temperatures.
The samples were analyzed by XRPD and TGA.
Non-micronized samples of monohydrate and anhydrate were stored at 40° C./75% RH for three months. The monohydrate was also stored at 40° C. without humidity control. During the three months, the samples were checked after two weeks, one month, two months, and three months.

SMILES	DVS weight gain [1]	Hygroscopicity (DVS) [1]	Crystal form transformation (XRPD) ([2]; micronized, 25° C./60% RH, three months)	Crystal form transformation (XRPD) ([2]; micronized, 40° C./75% RH, one month)	Chemical stability (HPLC) ([2]; non-micronized, three months)	Crystal form transformation (XRPD and TGA) ([2]; non-micronized, three months)	Crystal form transformation (XRPD) ([2]; non-micronized, 40° C./75% RH, separate study)	Solid-state stability (XRPD and TGA) ([2]; 56° C., humidity not controlled, one week)	Solid-state stability (XRPD and TGA) ([2]; 70° C., humidity not controlled, 1 day)	Solid-state stability (XRPD and TGA) ([2]; 70° C., humidity not controlled, 4 days)	Solid-state stability (XRPD and TGA) ([2]; 70° C., humidity not controlled, 7 days)	Solid-state stability (XRPD) ([2]; 70° C., one hour)	Solid-state stability (XRPD) ([2]; 90° C., one half hour)	Solid-state stability (XRPD) ([2]; 90° C., one hour)	Solid-state stability (XRPD and TGA) ([2]; room temperature, 0% RH, one week)
C=Cc1cc(O)cc2nc(-c3ccc(O)c(F)c3)oc12 [Anhydrate, 2-(3-fluoro-4-hydroxyphenyl)-7-vinyl-1,3-benzoxazol-5-ol]	0.2% gain (0–90% RH)	largely non-hygroscopic	did not transform to the monohydrate	partially transform to the monohydrate	chemically stable	did not transform	did not show any obvious transformation	–	–	–	–	–	–	–	–
C=Cc1cc(O)cc2nc(-c3ccc(O)c(F)c3)oc12 [Monohydrate, 2-(3-fluoro-4-hydroxyphenyl)-7-vinyl-1,3-benzoxazol-5-ol]	0.1% gain (0–90% RH)	largely non-hygroscopic	–	–	chemically stable	did not transform	–	no obvious dehydration	no obvious hydration	partially dehydrated	mostly dehydrated	stable	partially dehydrated	completely dehydrated	no obvious dehydration
